Results taken from patent US20190298621A1, “METHODS OF TREATMENT OF THE DENTAL PULP AND FILLING ROOT CANALS USING ANTI INFLAMMATORY RINSE SOLUTION AND FILLING COMPOSITION” (DENTSPLY SIRONA Inc., priority 2018, published 2019).

Experiment: Anti-inflammatory agent solubility in solvents
Assay type: physicochemical
Settings: for Solvent (anti-inflammatory agent solubility in solvents): solvent in which the agent is miscible, ambient conditions
Method: An anti-inflammatory rinse solution was prepared by mixing anti-inflammatory agent in a solvent in which they are miscible in a vial under ambient conditions as shown in Table 2.

| SMILES | Solvent (anti-inflammatory agent solubility in solvents) | solubility in water |
| --- | --- | --- |
| OC[C@@H](O)[C@H](O)[C@@H](O)CO [Xylitol] | Water | – |
| CC(C)Cc1ccc(C(C)C(=O)O)cc1 (stereo not shown) [Ibuprofen] | – | partially soluble in water |
| Cc1c(C)c2c(c(C)c1O)CC[C@@](C)(CCC[C@H](C)CCC[C@H](C)CCCC(C)C)O2 [Vitamin E, α-tocopherol] | Ethanol | insoluble in water |
| C=CCc1ccc(O)c(OC)c1 [Eugenol] | Ethanol | partially soluble in water |
| O=C(/C=C/c1ccccc1)c1ccccc1 [Chalcone] | Ethanol | – |
